Measured values published in patent US10420758B2, “Indolinyl-sulfonamide inhibitors of tankyrase and methods of use thereof” (The Board of Regents of the University of Texas System, priority 2015, dated 2019).

Tests used:
Axin2 in DLD-1 cells = test: Expression of Axin2 in DLD-1 cells; assay type: cell-based; conditions: exposure for 2 h
Text: Aberrant transcriptional induction of Wnt/β-catenin target genes is typically observed in CRC cells that harbor loss-of-function mutations in the APC tumor suppressor. […] See Chen et al. (2007), which is incorporated herein by reference.

zebrafish = test: Zebrafish caudal fin regeneration after chemical removal; assay type: in vivo; conditions: resected caudal fins, water containing compound for 7 d, then removal
Text: Achieving transient repression of pathological Wnt response without incurring permanent damage to normal stem cell function is a key anticancer therapeutic goal.

[1] = test system: β-catenin activity in DLD-1 cells; test: Wnt/β-catenin specific luciferase reporter (SuperTopFlash) in DLD-1 cells; assay type: cell-based; conditions: FIG. 2B
Description: Representative IWRs from each chemotype were evaluated for their ability to inhibit purified recombinant Tnks1 protein (Tnks1 […] protein). Parsylation of immobilized histone protein was determined by colorimetric detection of incorporated biotinylated NAD+ in 96 well format.
Luciferase Reporter Assays.
Assays were executed as described using a Dual Luciferase kit (Promega), and SuperTopFlash and control SV40-driven Renilla luciferase reporters (SV40-Ren luc) (Chen, et al., 2009).

SW403 cells = test: Cell growth of SW403 cells; assay type: cell-based; conditions: FIG. 2C
[2] = target: T1, catalytic domain of human Tnks1 (Homo sapiens, UniProt O95271); test: Crystal structures of IWR compound/Tnks1 complexes, binding pocket; conditions: crystal structure, FIGS. 3A-3C
T1 construct: The catalytic domain of human Tnks1 (residues 1105-1313) was expressed; His6 (with TEV site) (N, cleaved yes); made in house; host or cells: E. coli BL21 (DE3)
T1 sequence (O95271 1105-1313): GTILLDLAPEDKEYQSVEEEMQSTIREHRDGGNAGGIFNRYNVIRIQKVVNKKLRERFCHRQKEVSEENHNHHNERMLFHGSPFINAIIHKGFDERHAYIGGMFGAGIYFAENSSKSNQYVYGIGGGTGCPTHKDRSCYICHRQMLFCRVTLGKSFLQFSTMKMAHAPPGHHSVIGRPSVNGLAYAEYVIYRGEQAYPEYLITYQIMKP
Description: Protein Expression and Purification.
The catalytic domain of human Tnks1 (residues 1105-1313) was expressed by using a modified pET28 vector, which encodes an N-terminal His6-tag and a cleavage site for the Tobacco Etch Virus (TEV) protease. Protein expression was induced by 0.1 mM IPTG at 15° C. when the culture of the bacteria strain BL21 (DE3) transformed with the plasmid reached O.D. of 1.5. Cells were harvested 12 hrs after induction and lysed by Frenchpressing. The lysate was cleared by centrifugation at 15000 rpm for 1 hr. The protein was purified by Ni-NTA-based affinity chromatography and ion exchange chromatography. The N-terminal His6-tag was removed by overnight TEV protease treatment at 4° C. Purified protein was concentrated and stored in −80° C.
Crystallization, Data Collection and Structure Determination.
The purified Tnks1 catalytic domain at 5 mg/mL (0.22 mM) mixed with IWR-1 (the exo-form), IWR-3 and IWR-8 at 0.25 mM were subjected to crystallization trials by using sitting-drop 96-well plates. Following initial hits of crystallization, large crystals were obtained by hanging-drop vapor diffusion in conditions optimized based on the initial conditions. Crystals of the Tnks1/IWR-1 complex were grown at 20° C. in 0.1 M Bis-Tris (pH 5.3), 0.15 M MgCl2 and 20-23% PEG3350. […]

Row | SMILES | expression of Axin2 (Axin2 in DLD-1 cells) | fin regeneration after chemically induced blockade (zebrafish) | β-catenin activity induced by loss of APC function [1] | cell growth in a cancer cell line with compromised APC function (SW403 cells) | binding pocket engaged in Tnks1 [2]
1 | O=C(Nc1cccc2cccnc12)c1ccc(N2C(=O)[C@@H]3[C@H](C2=O)[C@@H]2C=C[C@H]3C2)cc1 [IWR-1] | decrease in the expression of Axin2 | able to regenerate tissue to nearly normal levels after chemical removal | – | – | –
2 | CCN(C(=O)C1CCN(S(=O)(=O)c2cc3c(cc2Br)CCN3C(C)=O)CC1)c1cccc(C)c1 [IWR-8] | – | – | inhibits β-catenin activity induced by loss of APC function | inhibits cell growth | engage the AD pocket
